The record followed here is patent US7569554B2, “Synergistic treatment of cancer using immunomers in conjunction with therapeutic agents” (Idera Pharmaceuticals, Inc., priority 2003, dated 2009).

For one series, the system named is 4T1 breast tumor. Description: 4T1 breast tumor in BALB/c mice, combination with doxorubicin. The series is classed as in vivo, mouse. As to conditions: IMO 2 1 mg/kg peritumoral, doxorubicin 30 mg/kg i.p; FIG. 24A. Here is the method: For the 4T1 tumor models, 5×10^5 cells/mouse in. 100 μl PBS were implanted into BALB/c mice in the lower right flank. On day 5 when the average tumor size reached 50 mm^2, the mice were given i.p injections of 30 mg/kg doxorubicin (Bedford lab, Bedford, Ohio) for three times on days 5, 6 and 7. IMO 2 (1 mg/kg) dissolved in 100 μl PBS was administrated by peritumoral injection at twice a week interval for a total of six times.

In series [1] the test system is vertebrate cells, preferably BALB/c mouse spleen cells or human PBMC. Description: Immunostimulatory activity, IL-12/IL-6 secretion (Tables 9-12, cell culture not given). It counts as cell-based. On the procedure: (§1) The secretion of IL-12 and IL-6 in vertebrate cells, preferably BALB/c mouse spleen cells or human PBMC, was measured by sandwich ELISA. The required reagents including cytokine antibodies and cytokine standards were purchased form PharMingen, San Diego, Calif. ELISA plates (Costar) were incubated with appropriate antibodies at 5 μg/mL in PBSN buffer (PBS/0.05% sodium azide, pH 9.6) overnight at 4° C. and then blocked with PBS/i % BSA at 37° C. for 30 minutes. Cell culture supernatants and cytokine standards were appropriately diluted with PBS/10% FBS, added to the plates in triplicate, and incubated at 25° C. for 2 hours. Plates were overlaid with 1 μg/mL appropriate biotinylated antibody and incubated at 25° C. for 1.5 hours. The plates were then washed extensively with PBS-T Buffer (PBS/0.05% Tween 20) and further incubated at 25° C. for 1.5 hours after adding streptavidin conjugated peroxidase (Sigma, St. Louis, Mo.). The plates were developed with Sure Blue™ (Kirkegaard and Perry) chromogenic reagent and the reaction was terminated by adding Stop Solution (Kirkegaard and Perry). The color change was measured on a Ceres 900 HDI Spectrophotometer (Bio-Tek Instruments).
(§2) In all instances, the levels of IL-12 and IL-6 in the cell culture supernatants were calculated from the standard curve constructed under the same experimental conditions for IL-112 and IL-6, respectively. The levels of IL-10, IFN-gamma and TNF-α in the cell culture supernatants were calculated from the standard curve constructed under the same experimental conditions for IL-10, IFN-gamma and TNF-α, respectively.

The subject of series [2] is BALB/c mouse spleen cells. Description: Cytokine secretion in BALB/c mouse spleen cell cultures (sandwich ELISA). As to conditions: for Induction of IL-12: FIG. 7A; for Induction of IL-12 / Induction of IL-6: compared with Oligo 1; for Induction of IL-6: FIG. 7B. It counts as cell-based. On the procedure: as §1, §2
The next series concerns BALB/c mice. Description: In vivo serum cytokine induction. As to conditions: for IL-6 (serum) / IL-12 (serum): 10 mg/kg, 4 hrs. More on the design: species or system mouse. Here is the method: To assess serum cytokine levels, BALB/c mice (n=5) were injected intraperitoneally (i.p), subcutaneously (s.c) or intramuscularly (i.m) with IMO compounds at 10 mg/kg (single dose). Sera was collected by retro-orbital bleeding at 4 hrs of IMO administration and determined IL-112 and IL-6 by sandwich ELISA. Cytokine antibodies and standards were purchased from PharMingen (San Diego, Calif.).
To evaluate the immunopharmacological effects in vivo, IMO compounds, CpG immunomers, and non-CpG oligos were administered to BALB/c mice i.p, s.c or i.m at a dose of 10 mg/kg and their serum was evaluated for IL-12 and IL-6 after 4 hrs.

A short description of series [3]: In vitro cytokine induction profiles of IMO compounds (FIG. 16). The series is classed as cell-based.
For another series, the system named is CT26.CL25 colon tumor. Description: Subcutaneous CT26.CL25 colon tumor in BALB/c mice. The series is classed as in vivo, mouse. Here is the method:
For subcutaneous solid tumor models, 10^6 CT26.CL25 cells/mouse or 5×10^5 B16.F0 cells/mouse in 100 μl of PBS were implanted into BALB/c or C57BL/6 mice in the lower right flank. The tumor size reached to 50 to 200 mg on day 6 for CT26.CL25 and on day 8 for B16.F0 post tumor inoculation. The tumor bearing mice were then treated with peritumoral injection of IMO compounds or non-CpG DNA control at a dose of 1 mg/kg every other day for 10 times. Tumor growth was recorded with the use of calipers, by measuring the long and short diameters of the tumor. Tumor volumes were measured with a caliper and the formula (0.5×length×width^2) was applied to determine tumor growth kinetics.
The antitumor activity of IMO compounds in a murine colon carcinoma CT26.CL25 model was evaluated. BALB/c mice bearing CT26.CL25 subcutaneous solid tumors were treated with 1 mg/kg IMO compounds by peritumoral administration every other day for 10 times starting on day 6 following tumor inoculation.

In series [4] the test system is human prostate cancer PC3 xenografts. The series is described as follows: PC3 xenograft experiment repeated with taxotere. It counts as in vivo, mouse. More on the design: unit: mg. As to conditions: 15 mg/kg. Here is the method: (§3) PC3 cells were cultured in 90% Ham's, F12K Medium with 10% Fetal Bovine Serum (FBS), in presence of 100 U/ml Penicillin and 100 μg/ml Streptomycin to establish the Human Prostate cancer model (PC3). Male athymic nude mice, 4-6 weeks old (Frederick Cancer Research and Development Center, Frederick, Md.), were accommodated for 6 days for environmental adjustment prior to the study. Cultured PC3 cells were harvested from the monolayer cultures, washed twice with Ham's, F12K Medium (10% FBS), resuspended in FBS-free Ham's, F12K Medium: Matrigel basement membrane matrix (Becton Dickinson Labware, Bedford, Mass.) (5:1; V/V), and injected subcutaneously (5×10^6 cells, total volume 0.2 ml) into the left inguinal area of each of the mice. The animals were monitored by general clinical observation, body weight, and tumor growth. Tumor growth was monitored by the measurement, with calipers, of two perpendicular diameters of the implant. Tumor mass (weight in grams) was calculated by the formula, 1/2a X b^2, where ‘a’ is the long diameter (cm) and ‘b’ is the short diameter (cm). When the mean tumor sizes reached ˜80 mg, the animals bearing human cancer xenografts were randomly divided into the treatment and control groups (5 animals/group). The control group received sterile physiological saline (0.9% NaCl) only. Immunomer 255 or 285, aseptically dissolved in physiological saline, was administered by subcutaneously injection at dose of 0.5 or 1.0 mg/kg/day, 3 doses/week. […] The detailed treatment schedule is shown as follows.
Taxotere was administered on days 0 and 7. Immunomer 165 was administered 5 days per week. Immunomers 255 and 285 were administered on days 0, 2, 4, 7, 9 and 11.

For a further series, the system named is CD69+ and CD86+ cells. Description: Activation of CD69+ and CD86+ cells in peripheral blood. The series is classed as in vivo, mouse. As to conditions: docetaxel 30 mg/kg days 1 and 3, IMO 2 5 mg/kg days 1, 3, 5, 7; FIG. 24C.
Series [5] deals with Her-2 positive BT-474 cells. The series is described as follows: Lysis of BT-474 cells by IMO-activated human PBMCs in the presence of Herceptin. It counts as cell-based. As to conditions: FIG. 26.
The nature of series [6]: Body weight and clinical observation of PC3 tumor-bearing nude mice. The series is classed as in vivo, mouse. As to conditions: compared with controls.
Series [7] deals with human prostate cancer PC3 xenografts. Description: Tumor mass, human prostate cancer PC3 xenografts in nude mice, with Gemcitabine. The series is classed as in vivo, mouse. As to conditions: 160 mg/kg. On the procedure:
as §3

Where a name gives a salt, the structure may show the parent alone.

For the compound `COc1cccc2c1C(=O)c1c(O)c3c(c(O)c1C2=O)C[C@@](O)(C(=O)CO)C[C@@H]3O[C@H]1C[C@H](N)[C@H](O)[C@H](C)O1` [doxorubicin, reference compound], the “Inhibition of 4T1 tumor growth” value with 4T1 breast tumor is given as “strong inhibition”.
Take “5′-CTATCTGACGTTCTCTGT-3′ (DNA, all phosphorothioate, methylation of C not given here) [Oligonucleotide 4]”: the IL-12 in [1] (0.3 μg/mL, Table 12) is reported as 257 pg/mL; in series [1] (3 μg/mL, Table 11), 1176 pg/mL; in series [2] (0.3 μg/mL, Table 13) it was 225 pg/mL. The IL-6 in series [1] (1 μg/mL, Table 12) is listed as 635 pg/mL; in series [1] (3 μg/mL, Table 11), 1892 pg/mL; in series [2] (1 μg/mL, Table 13), 1462 pg/mL.
On to “IMO 1: IMO compound of FIG. 15, first in order (SEQ ID NO 13) (DNA TCTGACGTTCT; listed as DNA, chemistry not given here)”, for which the “IL-6 (serum)” value in the series with BALB/c mice (Intramuscular (i.m)) is 5.8 ± 0.5 ng/mL; in the series with BALB/c mice (Intraperitoneal (i.p)), 5.9 ± 0.2 ng/mL; in the series on BALB/c mice (Subcutaneous (s.c)), 4.3 ± 0.3 ng/mL. In addition, the results for the “IL-12 (serum)” value with BALB/c mice (Intramuscular (i.m)), in the series with BALB/c mice (Intraperitoneal (i.p)) and in the series on BALB/c mice (Subcutaneous (s.c)) were 109.3 ± 25 ng/mL, 59.0 ± 11 ng/mL and 98.3 ± 15 ng/mL, respectively. Moreover, the “IL-12 secretion in vitro” value in series [3] is listed as “strong IL-12 secretion”. For the same compound, the “Average tumor growth inhibition” value in the series with CT26.CL25 colon tumor (day 24, compared with non-CpG DNA treated mice, 1 mg/kg peritumoral) is 72%.
Take `CC(=O)O[C@@]12CO[C@@H]1C[C@H](O)[C@@]1(C)C(=O)[C@H](O)C3=C(C)[C@@H](OC(=O)[C@H](O)[C@@H](NC(=O)OC(C)(C)C)c4ccccc4)C[C@@](O)([C@@H](OC(=O)c4ccccc4)[C@H]21)C3(C)C` [Taxotere, Docetaxel]: the “In vivo anti-cancer activity (tumor mass)” value stood at 56.64 in series [4] (Day 0.00); 128.51 in series [4] (Day 3.00); 320.63 in [4] (Day 6.00); 598.69 in series [4] (Day 9.00); 924.91 in series [4] (Day 12.00); 1589.08 in [4] (Day 15.00). Further, in the series with CD69+ and CD86+ cells, the “Percentage of CD69+ and CD86+ cells” value is given as “did not inhibit such activations”.
On to “5-GAGAACGCTCGACCTT-3′-3′-TTCCAGCTCGCAAGAG-5′ [Immunomer 2]”, for which, in [2], the “Induction of IL-12” value is “stronger inducer of IL-12 than monomeric Oligo 1” and the “Induction of IL-6” value is on record as “stronger inducer of IL-6 than monomeric Oligo 1”. Moreover, the “Elevation of IL-12, IL-6 and IL-10” value in series [2] (FIGS. 7A-C) is “elevates IL-12 and IL-6, but not IL-10 at lower concentrations than Oligonucleotides 1 or 3”.
Take “IMO 3: IMO compound of FIG. 15 (SEQ ID NO 18) containing a human-specific motif (DNA TCTGTCNTTCT; listed as DNA, further chemistry not given here)”: the “Serum IL-12 secretion in mice” value in the series with BALB/c mice (4 hr after administration, FIG. 25B) is recorded as “induced IL-12 secretion”. Moreover, the “Lysis of BT-474 cells” value in series [5] is recorded as “induces lysis of Her-2 positive BT-474 cells in the presence of Herceptin”. Moreover, the Antitumor activity entry with CT26.CL25 colon tumor (FIG. 25A) was “potent antitumor activity”.
In the case of `Nc1ccn([C@@H]2O[C@H](CO)[C@@H](O)C2(F)F)c(=O)n1` [Gemcitabine, Gemcitabine HCl], in series [6], the Body weight gains entry was “body weight loss in the first week and recovered in a week afterwards”. For the same compound, the Tumor mass in [7] (Day 0) turned out to be 82.6 mg; in series [7] (Day 3), 73.0 mg; in series [7] (Day 9), 35.7 mg; in series [7] (Day 12) it was 36.2 mg; in series [7] (Day 15), 31.7 mg; in series [7] (Day 18), 40.8 mg. In addition, the Tumor mass is recorded as 56.5 mg in series [7] (Day 24); 68.0 mg in series [7] (Day 27); 89.4 mg in series [7] (Day 30); 106.5 mg in series [7] (Day 33); 144.2 mg in series [7] (Day 36); 175.3 mg in series [7] (Day 39). The Tumor mass in [7] (Day 42) turned out to be 269.1 mg; in series [7] (Day 45) it was 383.8 mg; in series [7] (Day 48), 538.6 mg.
Consider “3′-TTCCAGCTCGCAAGAG-5′-5′-GAGAACGCTCGACCTT-3′ [Immunomer 3]”, for which, in [2], the “Induction of IL-12” value is given as “equal or weaker ability to produce immune stimulation compared with oligo 1” and the “Induction of IL-6” value is “equal or weaker ability to induce immune stimulation compared with Oligo 1”.
